What was measured:
Type in all cases: cell-based
[1] = test system: drug resistant strains of Acinetobacter baumannii; experiment: anti-drug resistant strains of Acinetobacter baumannii (inhibition zone)
Usutu virus (USUV) = experiment: anti-Usutu virus activity (inhibition rate); settings: for inhibition at 11 µM / inhibition at 33 µM: Usutu virus
Zika virus (ZIKV) = experiment: anti-Zika virus activity (inhibition rate); settings: for inhibition at 11 µM / inhibition at 33 µM: Zika virus
[2] = resistant strain of Acinetobacter baumannii no. 16
[3] = resistant strain of Acinetobacter baumannii no. 17
[4] = resistant strain of Acinetobacter baumannii no. 18
[5] = resistant strain of Acinetobacter baumannii no. 19
[6] = resistant strain of Acinetobacter baumannii no. 20

Compound	inhibition zone, diameter [1, 2] [mm]	inhibition zone, diameter [1, 3] [mm]	inhibition zone, diameter [1, 4] [mm]	inhibition zone, diameter [1, 5] [mm]	inhibition zone, diameter [1, 6] [mm]	Anti-USUV activity (inhibition rate) (Usutu virus (USUV); Drug concentration 11 μM)	Anti-USUV activity (inhibition rate) (Usutu virus (USUV); Drug concentration 33 μM)	Anti-ZIKV activity (inhibition rate) (Zika virus (ZIKV); Drug concentration 11 μM)	Anti-ZIKV activity (inhibition rate) (Zika virus (ZIKV); Drug concentration 33 μM)	inhibition at 11 µM (Usutu virus (USUV); Drug concentration 11 μM) [%]	inhibition at 33 µM (Usutu virus (USUV); Drug concentration 33 μM) [%]	inhibition at 11 µM (Zika virus (ZIKV); Drug concentration 11 μM) [%]	inhibition at 33 µM (Zika virus (ZIKV); Drug concentration 33 μM) [%]
O=C1C2CCCCN2C(c2ccc(O)cc2)N1Nc1ccccc1 (single isomer, unassigned) [ZKD-4A]	58	40	66	68	62								
O=C1C2CCCCN2C(c2ccc(O)cc2)N1Nc1ccccc1 (single isomer, unassigned) [ZKD-4B]	68	68	68	68	68								
COc1ccc(CC2N(Nc3ccccc3)C(=O)C3CCCCN32)cc1O (single isomer, unassigned) [ZKD-12A]	65	68	68	58	68								
COc1ccc(CC2N(Nc3ccccc3)C(=O)C3CCCCN32)cc1O (single isomer, unassigned) [ZKD-12B]	68	68	55	60	68								
COc1ccc(CC2N(Nc3ccccc3)C(=O)C3CCCCN32)cc1OC (single isomer, unassigned) [ZKD-13A]	68	68	68	64	68								
COc1ccc(CC2N(Nc3ccccc3)C(=O)C3CCCCN32)cc1OC (single isomer, unassigned) [ZKD-13B]	68	68	36	64	68								
COc1cc(CC2N(Nc3ccccc3)C(=O)C3CCCCN32)ccc1O (single isomer, unassigned) [ZKD-14A]	68	68	45	64	68								
COc1cc(CC2N(Nc3ccccc3)C(=O)C3CCCCN32)ccc1O (single isomer, unassigned) [ZKD-14B]	54	53	34	68	68								
O=C1C2CCc3ccccc3N2C(c2ccc(O)cc2)N1Nc1ccccc1 (single isomer, unassigned) [ZXD-86B]						+++ (+++: Complete suppression)	+++ (+++: Complete suppression)	+ (+: Partial suppression)	+++ (+++: Complete suppression)				
O=C(NNc1ccc(F)cc1)c1ccc2cc[nH]c2c1 [ZBM-24]	38	68	6	50	68								
O=C(NNc1ccc(F)cc1)c1ncc[nH]1 [ZBM-28]	51	68	64	64	68								
Cn1cnc(C(=O)NNc2ccc(F)cc2)c1 [ZBM-29]	51	68	48	68	68								
Cn1cncc1C(=O)NNc1ccc(F)cc1 [ZBM-30]	45	68	45	68	68								
O=C(NNc1ccc(F)cc1)c1cc2ccc(Cl)cc2[nH]1 [ZBM-36]	30	58	21	68	68								
O=C(NN1C(=O)[C@@H]2Cc3ccccc3N2[C@H]1c1ccc([N+](=O)[O-])cc1)c1ccc([N+](=O)[O-])cc1 [ZDL-11]										< 0	0 to 100	< 0	< 0
O=C1[C@@H]2Cc3ccccc3N2[C@@H](c2ccc([N+](=O)[O-])cc2)N1Nc1ccccc1 [ZDL-19]										< 0	> 100	< 0	0 to 100
COc1cc([C@H]2N(Nc3ccccc3)C(=O)[C@@H]3Cc4ccccc4N32)ccc1O [ZDL-21]										< 0	< 0	< 0	0 to 100
O=C1[C@@H]2Cc3ccccc3N2[C@@H](c2ccc([N+](=O)[O-])cc2)N1NS(=O)(=O)c1ccc([N+](=O)[O-])cc1 [ZDL-38]										< 0	0 to 100	< 0	< 0
O=C1C2CCCCN2[C@H](c2ccco2)N1Nc1ccccc1 (some centres unmarked) [ZKD-5A]	68	68	68	68	68								

Compound	inhibition zone, diameter [1, 2] [mm]	inhibition zone, diameter [1, 3] [mm]	inhibition zone, diameter [1, 4] [mm]	inhibition zone, diameter [1, 5] [mm]	inhibition zone, diameter [1, 6] [mm]	Anti-USUV activity (inhibition rate) (Usutu virus (USUV); Drug concentration 11 μM)	Anti-USUV activity (inhibition rate) (Usutu virus (USUV); Drug concentration 33 μM)	Anti-ZIKV activity (inhibition rate) (Zika virus (ZIKV); Drug concentration 11 μM)	Anti-ZIKV activity (inhibition rate) (Zika virus (ZIKV); Drug concentration 33 μM)	inhibition at 11 µM (Usutu virus (USUV); Drug concentration 11 μM) [%]	inhibition at 33 µM (Usutu virus (USUV); Drug concentration 33 μM) [%]	inhibition at 11 µM (Zika virus (ZIKV); Drug concentration 11 μM) [%]	inhibition at 33 µM (Zika virus (ZIKV); Drug concentration 33 μM) [%]
O=C1C2CCCCN2[C@@H](c2ccco2)N1Nc1ccccc1 (some centres unmarked) [ZKD-5B]	68	48	48	55	68								
COc1ccc(C2N(Nc3ccccc3)C(=O)C3CCCCN32)cc1OC (centres unmarked) [ZKD-6A]	45	43	20	25	64								
COc1ccc([C@H]2N(Nc3ccccc3)C(=O)C3CCCCN32)cc1OC (some centres unmarked) [ZKD-6B]	16	17	16	20	40								
O=C1C2CCCCN2C(c2ccc(B(O)O)cc2)N1Nc1ccccc1 (centres unmarked) [ZKD-10A]	56	53	55	48	68								
O=C1C2CCCCN2[C@@H](c2ccc(B(O)O)cc2)N1Nc1ccccc1 (some centres unmarked) [ZKD-10B]	39	48	45	46	54								
CC1(C)OB(c2ccc([C@@H]3N(Nc4ccccc4)C(=O)C4CCCCN43)cc2)OC1(C)C (some centres unmarked) [ZKD-15A]	46	50	40	68	68								
CC1(C)OB(c2ccc([C@H]3N(Nc4ccccc4)C(=O)C4CCCCN43)cc2)OC1(C)C (some centres unmarked) [ZKD-15B]	67	68	40	68	68								
O=C(NNc1ccc(F)cc1)C1CCCCN1 (centres unmarked) [ZKD-17]	67	68	36	68	68								
COc1cc([C@@H]2N(Nc3ccccc3)C(=O)C3CCCCN32)ccc1O (some centres unmarked) [ZKD-18A]	68	68	68	68	68								
COc1cc(C2N(Nc3ccccc3)C(=O)C3CCCCN32)ccc1O (centres unmarked) [ZKD-18B]	68	68	68	68	68								
COc1ccc([C@@H]2N(Nc3ccccc3)C(=O)C3CCCCN32)cc1O (some centres unmarked) [ZKD-19A]	68	68	68	68	68								
COc1ccc(C2N(Nc3ccccc3)C(=O)C3CCCCN32)cc1O (centres unmarked) [ZKD-19B]	68	68	68	68	68								
Cc1cnc2c(S(=O)(=O)N3CCCCC3C(=O)NNc3ccc(F)cc3)cccc2c1 (centres unmarked) [ZKD-21]	60	48	53	64	68								
O=C(NNc1ccc([N+](=O)[O-])cc1)[C@@H]1Cc2ccccc2CN1 [ZSD-15]	44	40	68	68	40								
O=C(NNc1ccc(F)cc1)[C@@H]1Cc2ccccc2CN1 [ZSD-54]	50	58	47	68	68								
O=C1C2CCc3ccccc3N2C(c2ccc(CO)cc2)N1Nc1ccccc1 (centres unmarked) [ZXD-157B]										> 100			
O=C(NNc1ccc(F)cc1)C1CCc2ccccc2N1 (centres unmarked) [ZXD-F]	65	68	68	68	68								
O=C1C(c2ccccc2)C(c2ccc(O)cc2)N2CCC[C@@H]12 (some centres unmarked) [ZXP-10]										< 0	0 to 100		

Source: patent US20220235057A1, “CYCLIC FORMYL AND CYCLIC KETONE COMPOUNDS, PREPARATION METHOD THEREFOR, AND PHARMACEUTICAL USE” (priority 2019, published 2022)
